These results are taken from PMC7734281, “Functionalized Oxoindolin Hydrazine Carbothioamide Derivatives as Highly Potent Inhibitors of Nucleoside Triphosphate Diphosphohydrolases” (Frontiers in Pharmacology, 2020).

The inhibition is the share of the control response that was lost under treatment. Read a low inhibition as a weak effect. What is called melting point is the temperature, or range, at which the solid turns liquid. In general, Ki refers to the dissociation constant of the complex between target and ligand, obtained from inhibition or displacement. Low values mean higher affinity, high ones lower affinity. Broadly, the IC50 is the point on the concentration scale where inhibition reaches its midpoint. Read a low IC50 as inhibition by little substance.

In series [1] the target is T1, h-NTPDase3 (Homo sapiens, UniProt O75355).
T1 construct: made in house; host or cells: COS-7 cells, transient transfection; crude protein extract after sonication
T1 sequence (O75355 1-529): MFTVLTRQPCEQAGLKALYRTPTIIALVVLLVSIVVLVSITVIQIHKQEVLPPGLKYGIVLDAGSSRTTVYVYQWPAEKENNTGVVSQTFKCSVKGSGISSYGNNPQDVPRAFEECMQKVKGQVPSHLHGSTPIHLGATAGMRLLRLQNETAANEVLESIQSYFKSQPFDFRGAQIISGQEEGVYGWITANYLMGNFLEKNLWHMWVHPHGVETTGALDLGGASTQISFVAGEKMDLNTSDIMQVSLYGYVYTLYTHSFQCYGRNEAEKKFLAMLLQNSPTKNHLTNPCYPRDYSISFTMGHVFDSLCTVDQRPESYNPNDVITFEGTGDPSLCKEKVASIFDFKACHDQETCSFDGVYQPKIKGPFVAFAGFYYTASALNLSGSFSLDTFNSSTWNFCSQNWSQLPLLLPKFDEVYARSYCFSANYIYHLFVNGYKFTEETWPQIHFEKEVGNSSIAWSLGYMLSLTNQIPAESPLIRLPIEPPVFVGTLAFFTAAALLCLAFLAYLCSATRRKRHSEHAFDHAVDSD
The series can be described thus: h-NTPDase3 inhibition, malachite green assay. Conditions: for inhibition at 100 µM / Ki / IC50: human NTPDase3; for inhibition at 100 µM: compound 100 µM; for IC50: ATP 100 µM substrate, mean ± SEM of three independent experiments; for Mode of inhibition of h-NTPDase3: Lineweaver-Burk plot. In kind it is biochemical. How it is done:
(§1) COS-7 cells were transfected with plasmids expressing human or mouse NTPDases1, -2, -3, and -8 as previously described ([Levesque et al., 2007]; [Lecka et al., 2014]) Briefly, the confluent cells were transferred to Dulbecco’s Modified Eagle’s Medium containing no fetal bovine serum. Then, these cells were incubated with plasmid DNA (6 µg) and Lipofectamine reagent (24 µl) at 37°C. After 5 h, transfection was terminated with the addition of an equal volume of DMEM/F-12 (supplemented with 20% FBS) and cells were collected by harvesting after 40–72 h.
(§2) To prepare protein extracts, transfected COS-7 cells were washed three times with tris-saline buffer while temperature was maintained at 4°C. Then cells were scraped and resuspended in harvesting buffer containing 95 mM NaCl, 45 mM tris and 0.1 mM phenylmethylsulfonyl fluoride (pH 7.5). Cells were again washed twice by centrifugation for 5 min at 300 × g at 4°C and then resuspended in harvesting buffer (supplemented with 10 μg ml aprotinin). Following sonication, cellular debris was isolated by 10 min centrifugation at 300 g at 4°C. Subsequently, supernatant was removed very carefully and protein concentration was determined by using Bradford microplate assay while using the bovine serum albumin as a standard ([Bradford, 1976]).
(§3) The inhibitory effects of synthesized compounds on h-NTPDase1, -2, -3, and -8 were determined as described previously, although with slight modifications ([Martín-Satué et al., 2009]). Assay was conducted in a reaction medium containing 50 mM tris-HCl and 5 mM CaCl2 (pH 7.4). All the test compounds were dissolved in dimethyl sulfoxide (DMSO, 10%) and initially screened at a concentration of 100 µM. A reaction mixture containing 55 µl of assay buffer, 10 µl of test compound solution and 10 µl of h-NTPDase1 (58 ng/well) or h-NTPDase2 (79 ng/well) or h-NTPDase3 (163 ng/well) or h-NTPDase8 (66 ng/well) was incubated at 37°C for 10 min. Following the incubation, a 10 µl solution of adenosine triphosphate (ATP, 100 µm) was added as substrate and reaction mixture was again incubated for 15 min at 37°C. The reaction was stopped by adding malachite green reagent (15 µl) and placed at room temperature for 4 to 6 min. Finally, absorbance was measured at 630 nm by using Omega FLUOstar microplate reader (BMG Labtech, Ortenberg, Germany) and % inhibitions were calculated. For compounds showing more than 50% inhibition of any isozyme, dose response curves were generated and their IC50 values were determined. Three separate enzyme inhibition assays were carried out in triplicate and dose-response curve were generated by using PRISM 5.0 (GraphPad, San Diego, United States).

For series [2], the target named is T2, h-NTPDase8 (Homo sapiens, UniProt Q5MY95).
T2 construct: made in house; host or cells: COS-7 cells, transient transfection; crude protein extract after sonication
T2 sequence (Q5MY95 1-495): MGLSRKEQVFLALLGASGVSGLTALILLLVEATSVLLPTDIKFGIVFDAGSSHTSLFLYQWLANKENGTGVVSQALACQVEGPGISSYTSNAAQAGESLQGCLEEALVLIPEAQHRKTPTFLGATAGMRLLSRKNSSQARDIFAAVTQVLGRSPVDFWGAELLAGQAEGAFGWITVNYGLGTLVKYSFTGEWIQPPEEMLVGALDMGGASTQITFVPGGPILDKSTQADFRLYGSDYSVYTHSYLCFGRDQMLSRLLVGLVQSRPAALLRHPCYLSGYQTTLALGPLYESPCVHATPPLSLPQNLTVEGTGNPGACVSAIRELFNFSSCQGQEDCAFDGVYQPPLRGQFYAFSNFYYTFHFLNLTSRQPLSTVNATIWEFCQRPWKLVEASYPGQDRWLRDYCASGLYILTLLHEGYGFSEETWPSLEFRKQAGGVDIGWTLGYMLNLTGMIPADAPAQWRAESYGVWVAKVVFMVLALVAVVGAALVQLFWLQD
The series can be described thus: h-NTPDase8 inhibition, malachite green assay. In kind it is biochemical. The settings on record: for inhibition at 100 µM: compound 100 µM; for IC50: ATP 100 µM substrate, mean ± SEM of three independent experiments. How it is done:
as §1, §2, §3

The structures appear in SMILES notation.

`O=C1Nc2ccccc2/C1=N/NC(=S)Nc1ccc(F)cc1` [8d, (Z)-N-(4-fluorophenyl)-2-(2-oxoindolin-3-ylidene)hydrazine-1-carbothioamide] displayed a melting point of 255 to 256 °C. In series [1], this molecule gave an inhibition at 100 µM of 46%. This molecule displayed an inhibition at 100 µM in series [2] of 33%.

As for `Cc1ccc(NC(=S)N/N=C2\C(=O)Nc3ccccc32)cc1` [8h, (Z)-2-(2-oxoindolin-3-ylidene)-N-(p-tolyl)hydrazine-1-carbothioamide], the inhibition at 100 µM in series [1] amounted to 26%; in series [2], 22%.

As for `O=C1Nc2ccccc2/C1=N/NC(=S)NCc1ccccc1` [8f, (Z)-N-benzyl-2-(2-oxoindolin-3-ylidene)hydrazine-1-carbothioamide], the melting point lay within 206 to 208 °C. In series [2], the inhibition at 100 µM is below 50%.

For the molecule `O=C1Nc2ccccc2/C1=N/NC(=S)Nc1c(F)cccc1F` [8l, (Z)-N-(2,6-difluorophenyl)-2-(2-oxoindolin-3-ylidene)hydrazine-1-carbothioamide], the melting point was in the range of 243 to 244 °C. For the same molecule, the inhibition at 100 µM in series [2] is below 50%.

For the molecule `O=C1Nc2ccccc2/C1=N/NC(=S)Nc1cccc(Cl)c1` [8g, (Z)-N-(3-chlorophenyl)-2-(2-oxoindolin-3-ylidene)hydrazine-1-carbothioamide], the melting point fell in the range of 235 to 236 °C. This molecule returned an inhibition at 100 µM in series [1] of 17%. The same molecule registered an inhibition at 100 µM in series [2] of 7%.

In turn, `Cc1cccc(C)c1NC(=S)N/N=C1\C(=O)Nc2ccccc21` [8i, (Z)-N-(2,6-dimethylphenyl)-2-(2-oxoindolin-3-ylidene)hydrazine-1-carbothioamide] yielded a melting point of 250 to 252 °C. The molecule also had an inhibition at 100 µM in series [1] of 25%. Moreover, the inhibition at 100 µM in series [2] came out at 17%.

Molecule `O=C1Nc2ccccc2/C1=N/NC(=S)Nc1ccc([N+](=O)[O-])cc1` [8b, (Z)-N-(4-nitrophenyl)-2-(2-oxoindolin-3-ylidene)hydrazine-1-carbothioamide] gave a melting point of 271 to 272 °C.

`O=C1Nc2ccccc2/C1=N/NC(=S)Nc1ccccc1` [8a, (Z)-2-(2-oxoindolin-3-ylidene)-N-phenylhydrazine-1-carbothioamide]: the inhibition at 100 µM in series [1] stood at 20%; in series [2], 24%.

Consider `Cc1ccc(C(=O)Nc2ccc(S(=O)(=O)O)c3cc(S(=O)(=O)O)cc(S(=O)(=O)O)c23)cc1NC(=O)c1cccc(NC(=O)Nc2cccc(C(=O)Nc3cc(C(=O)Nc4ccc(S(=O)(=O)O)c5cc(S(=O)(=O)O)cc(S(=O)(=O)O)c45)ccc3C)c2)c1` [Suramin, reference compound], for which the inhibition constant Ki in series [1] was determined as 1.85 µM. In addition, the IC50 in series [1] was 4.31 ± 0.41 µM; in series [2], above 100 µM.

Molecule `CCNC(=S)N/N=C1\C(=O)Nc2ccccc21` [8m, (Z)-N-ethyl-2-(2-oxoindolin-3-ylidene)hydrazine-1-carbothioamide] had a melting point of 190 to 194 °C. Also, in series [1], the “Mode of inhibition of h-NTPDase3” value is “non-competitive”, the inhibition constant Ki was determined as 0.16 µM and the IC50 is 0.38 ± 0.03 µM. The same molecule had an inhibition at 100 µM in series [2] of 38%.

As to `COc1ccc(NC(=S)NNC2=c3ccccc3=NC2=O)cc1` [8k, (Z)-N-(4-methoxyphenyl)-2-(2-oxoindolin-3-ylidene)hydrazine-1-carbothioamide], the inhibition at 100 µM in series [1] is 19%; in series [2], 46%.

`COc1ccc(OC)c(NC(=S)N/N=C2\C(=O)Nc3ccccc32)c1` [8j, (Z)-N-(2,5-dimethoxyphenyl)-2-(2-oxoindolin-3-ylidene)hydrazine-1-carbothioamide] came in with a melting point of 245 to 248 °C. The inhibition at 100 µM in series [1] came out at 34%. This molecule came in with an inhibition at 100 µM in series [2] of 19%.

As for `O=C1Nc2ccccc2/C1=N/NC(=S)Nc1ccc(Cl)cc1` [8c, (Z)-N-(4-chlorophenyl)-2-(2-oxoindolin-3-ylidene)hydrazine-1-carbothioamide], the melting point lay in the range of 240 to 244 °C. The “Times more active than standard inhibitor suramin (comparison of IC50s), h-NTPDase3” value in series [1] (IC50 ratio versus suramin) is 22 times. In addition, in series [1], the “Mode of inhibition of h-NTPDase3” value is given as “competitive”, the Ki was 0.08 µM and inhibition was half-maximal at 0.19 ± 0.02 µM (IC50). In series [2], this molecule returned an inhibitory constant (Ki) of 0.11 µM and an IC50 of 0.24 ± 0.02 µM.

Regarding `COc1cccc(NC(=S)N/N=C2\C(=O)Nc3ccccc32)c1` [8e, (Z)-N-(3-methoxyphenyl)-2-(2-oxoindolin-3-ylidene)hydrazine-1-carbothioamide], the melting point is 220 to 224 °C.
